In patent US20250205259A1, “CLASS OF 7-((FIVE-MEMBERED HETEROCYCLIC)METHYL)-8-CARBOXYLIC ACID-BENZO CYCLIC BORATE DERIVATIVES AND USES THEREOF” (priority 2022, published 2025):
Like-named read-outs stand apart in the source and are kept apart here.

How the values were obtained:
Type in all cases: biochemical
OXA-48 = OXA-48 (Klebsiella pneumoniae, UniProt Q6XEC0); assay: Inhibitory activity on SBL, fluorescent substrate FC-5; settings: for inhibitory activity on OXA-48 compared to avibactam: comparison in words
NDM-1 = NDM-1 (Klebsiella pneumoniae, UniProt C7C422); assay: Inhibitory activity on MBL, fluorescent substrate FC-5
IMP-1 = IMP-1 (Serratia marcescens, UniProt P52699); assay: as above
CTX-M-14 = CTX-M-14 (Escherichia coli, UniProt Q9L5C7); assay: Inhibitory activity on SBL, fluorescent substrate FC-5; settings: for inhibitory activity on CTX-M-14 compared to avibactam: comparison in words
KPC-2 = KPC-2 (Klebsiella pneumoniae, UniProt Q9F663); assay: as above; settings: for inhibitory activity on KPC-2 compared to avibactam: comparison in words
VIM-2 = VIM-2 (Escherichia coli, UniProt Q5U7L7); assay: Inhibitory activity on MBL, fluorescent substrate FC-5
VIM-1 = VIM-1 (Pseudomonas aeruginosa, UniProt A0A0F7KYQ8); assay: as above
TEM-1 = TEM-1 (Escherichia coli, UniProt P62593); assay: Inhibitory activity on SBL, fluorescent substrate FC-5; settings: for IC50: read-out: Inhibitory activity on SBL TEM-1 (IC50 class); for inhibitory activity on TEM-1 compared to avibactam: comparison in words
NDM-5 = NDM-5 (Klebsiella pneumoniae, UniProt C7C422, M154L/V88L); assay: Inhibitory activity on MBL, fluorescent substrate FC-5
[1] = read-out: Inhibitory activity on SBL OXA-48 (IC50 class)
[2] = read-out: Inhibitory activity on MBL NDM-1 (IC50 class)
[3] = IMP-1 and/or IMP-4, read-out: inhibitory activity at a nanomolar-level on IMP-1 and/or IMP-4
[4] = read-out: Inhibitory activity on MBL IMP-1 (IC50 class)
[5] = read-out: Inhibitory activity on SBL CTX-M-14 (IC50 class)
[6] = read-out: Inhibitory activity on SBL KPC-2 (IC50 class)
[7] = read-out: Inhibitory activity on MBL VIM-2 (IC50 class)
[8] = VIM-1 and/or VIM-2, read-out: inhibitory activity at a nanomolar-level on VIM-1 and/or VIM-2
[9] = read-out: Inhibitory activity on MBL VIM-1 (IC50 class)
[10] = read-out: Inhibitory activity on MBL NDM-5 (IC50 class)
[11] = read-out: inhibitory activity at a nanomolar-level on NDM-1
[12] = read-out: inhibitory activity at a nanomolar-level on NDM-5

Sequence of IMP-1 (P52699 19-246 limits assumed): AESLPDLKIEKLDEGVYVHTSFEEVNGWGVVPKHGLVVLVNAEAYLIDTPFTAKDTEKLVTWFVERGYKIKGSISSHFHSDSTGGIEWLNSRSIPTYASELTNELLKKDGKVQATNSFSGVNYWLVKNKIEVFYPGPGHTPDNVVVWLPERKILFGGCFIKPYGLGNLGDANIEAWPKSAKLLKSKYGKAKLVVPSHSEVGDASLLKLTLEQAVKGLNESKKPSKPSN
Sequence of CTX-M-14 (Q9L5C7 entry or part of it): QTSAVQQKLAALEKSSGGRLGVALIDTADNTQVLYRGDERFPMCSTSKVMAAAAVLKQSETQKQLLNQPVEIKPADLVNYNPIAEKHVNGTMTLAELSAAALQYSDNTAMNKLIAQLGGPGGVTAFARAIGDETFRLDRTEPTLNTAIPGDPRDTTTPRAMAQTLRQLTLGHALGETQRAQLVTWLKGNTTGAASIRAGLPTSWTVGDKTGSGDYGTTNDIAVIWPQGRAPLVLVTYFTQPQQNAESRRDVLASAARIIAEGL
Sequence of TEM-1 (P62593 24-286 limits assumed): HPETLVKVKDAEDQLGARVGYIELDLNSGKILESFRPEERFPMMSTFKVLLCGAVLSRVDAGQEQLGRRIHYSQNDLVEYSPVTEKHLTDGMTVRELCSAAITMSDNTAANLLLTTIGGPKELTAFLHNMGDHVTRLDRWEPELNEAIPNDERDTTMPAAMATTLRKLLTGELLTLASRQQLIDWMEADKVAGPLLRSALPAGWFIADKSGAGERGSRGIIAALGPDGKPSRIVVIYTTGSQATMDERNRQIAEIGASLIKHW
Sequence of NDM-1 (C7C422 29-270 limits assumed): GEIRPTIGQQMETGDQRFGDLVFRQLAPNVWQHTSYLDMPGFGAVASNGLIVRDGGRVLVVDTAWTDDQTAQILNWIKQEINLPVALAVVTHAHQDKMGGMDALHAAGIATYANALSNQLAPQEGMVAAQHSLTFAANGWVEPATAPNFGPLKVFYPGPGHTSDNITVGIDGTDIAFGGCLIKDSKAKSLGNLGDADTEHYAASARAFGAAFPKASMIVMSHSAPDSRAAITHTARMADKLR
Sequence of NDM-5 (C7C422 29-270 V88L/M154L): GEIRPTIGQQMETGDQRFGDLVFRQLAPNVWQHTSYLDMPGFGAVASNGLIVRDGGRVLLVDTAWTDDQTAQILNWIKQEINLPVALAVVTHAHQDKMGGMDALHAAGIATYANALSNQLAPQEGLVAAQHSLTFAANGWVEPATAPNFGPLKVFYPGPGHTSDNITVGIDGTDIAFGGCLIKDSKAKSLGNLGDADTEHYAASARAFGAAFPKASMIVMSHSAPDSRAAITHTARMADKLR
Sequence of OXA-48 (Q6XEC0 23-265 limits assumed): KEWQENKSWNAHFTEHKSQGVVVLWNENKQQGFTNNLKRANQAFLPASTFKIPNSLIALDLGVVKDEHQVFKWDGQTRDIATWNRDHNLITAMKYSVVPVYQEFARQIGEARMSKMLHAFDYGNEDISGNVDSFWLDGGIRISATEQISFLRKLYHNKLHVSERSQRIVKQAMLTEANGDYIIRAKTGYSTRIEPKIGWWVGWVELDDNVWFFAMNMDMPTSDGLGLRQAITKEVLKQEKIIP
Sequence of KPC-2 (Q9F663 25-293 limits assumed): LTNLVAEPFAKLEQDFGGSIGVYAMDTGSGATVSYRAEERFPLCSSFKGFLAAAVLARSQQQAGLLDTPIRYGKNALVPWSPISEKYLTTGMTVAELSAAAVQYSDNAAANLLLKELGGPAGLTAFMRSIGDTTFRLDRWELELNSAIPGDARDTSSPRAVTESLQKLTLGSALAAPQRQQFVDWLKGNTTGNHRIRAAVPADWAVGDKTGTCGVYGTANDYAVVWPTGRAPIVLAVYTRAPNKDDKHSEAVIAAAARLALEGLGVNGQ

Compound	IC50 (OXA-48; [1])	IC50 (NDM-1; [2])	IC50 (IMP-1; [3])	IC50 (IMP-1; [4])	IC50 (CTX-M-14; [5])	IC50 (KPC-2; [6])	IC50 (VIM-2; [7])	IC50 (VIM-1; [8])	IC50 (VIM-1; [9])	IC50 (TEM-1)	IC50 (NDM-5; [10])	IC50 (NDM-1; [11])	IC50 (NDM-5; [12])	further results
O=C(O)c1c(Cn2ccnn2)ccc2c1OB(O)C1CC21 (stereo not drawn) [Compound 28]	10 to 1000 nM	1000 to 100000 nM	< 1000 nM	10 to 1000 nM	10 to 1000 nM	< 10 nM	10 to 1000 nM	< 1000 nM	10 to 1000 nM	10 to 1000 nM	1000 to 100000 nM			
C[C@H]1Cc2ccc(Cn3ccnn3)c(C(=O)O)c2OB1O [Compound 29]	10 to 1000 nM	10 to 1000 nM	< 1000 nM	10 to 1000 nM	10 to 1000 nM	< 10 nM	10 to 1000 nM	< 1000 nM	10 to 1000 nM	10 to 1000 nM	10 to 1000 nM	< 1000 nM	< 1000 nM	
Nc1ccc(-c2cn(Cc3ccc4c(c3C(=O)O)OB(O)CC4)nn2)cn1 [Compound 60]	< 10 nM	10 to 1000 nM	< 1000 nM	10 to 1000 nM	10 to 1000 nM	< 10 nM	10 to 1000 nM	< 1000 nM	10 to 1000 nM	10 to 1000 nM	10 to 1000 nM	< 1000 nM	< 1000 nM	inhibitory activity on OXA-48 compared to avibactam (OXA-48): better or comparable; inhibitory activity on CTX-M-14 compared to avibactam (CTX-M-14): better or comparable; inhibitory activity on KPC-2 compared to avibactam (KPC-2): better or comparable; inhibitory activity on TEM-1 compared to avibactam (TEM-1): better or comparable
Nc1ccc(-c2cn(Cc3ccc4c(c3C(=O)O)OB(O)CC4)nn2)cc1 [Compound 59]	< 10 nM	10 to 1000 nM	< 1000 nM	10 to 1000 nM	< 10 nM	< 10 nM	10 to 1000 nM	< 1000 nM	10 to 1000 nM	< 10 nM	10 to 1000 nM	< 1000 nM	< 1000 nM	inhibitory activity on OXA-48 compared to avibactam (OXA-48): better or comparable; inhibitory activity on CTX-M-14 compared to avibactam (CTX-M-14): better or comparable; inhibitory activity on KPC-2 compared to avibactam (KPC-2): better or comparable; inhibitory activity on TEM-1 compared to avibactam (TEM-1): better or comparable
NCCc1cn(Cc2ccc3c(c2C(=O)O)OB(O)CC3)nn1 [Compound 8]	10 to 1000 nM	1000 to 100000 nM		1000 to 100000 nM	10 to 1000 nM	10 to 1000 nM	10 to 1000 nM	< 1000 nM	1000 to 100000 nM	10 to 1000 nM	10 to 1000 nM			
O=C(O)c1c(Cn2nccn2)ccc2c1OB(O)C1CC21 (stereo not drawn) [Compound 27]										10 to 1000 nM	1000 to 100000 nM			IC50 (OXA-48; Inhibitory activity on SBL OXA-48 (IC50 class)): < 10 nM; IC50 (NDM-1): 1000 to 100000 nM; IC50 (IMP-1): 1000 to 100000 nM; IC50 (CTX-M-14): 10 to 1000 nM; IC50 (KPC-2): < 10 nM; IC50 (VIM-2): 10 to 1000 nM; IC50 (VIM-1; Inhibitory activity on MBL VIM-1 (IC50 class)): 1000 to 100000 nM; IC50 (VIM-1; inhibitory activity at a nanomolar-level on VIM-1 and/or VIM-2, text summary, VIM-1 and/or VIM-2): < 1000 nM
CC(C)(N)C#Cc1cnn(Cc2ccc3c(c2C(=O)O)OB(O)CC3)c1 [Compound 46]	10 to 1000 nM	1000 to 100000 nM		1000 to 100000 nM	< 10 nM	< 10 nM	10 to 1000 nM		1000 to 100000 nM	10 to 1000 nM	10 to 1000 nM			
N[C@H]1CC(=O)N(Cc2ccc3c(c2C(=O)O)OB(O)CC3)C1 [Compound 45]	10 to 1000 nM	1000 to 100000 nM		1000 to 100000 nM	10 to 1000 nM	10 to 1000 nM	1000 to 100000 nM		1000 to 100000 nM	10 to 1000 nM	1000 to 100000 nM			
CO[C@H]1Cc2ccc(Cn3cc(CN)cn3)c(C(=O)O)c2OB1O [Compound 69]	1000 to 100000 nM	10 to 1000 nM		1000 to 100000 nM	1000 to 100000 nM	1000 to 100000 nM	10 to 1000 nM		1000 to 100000 nM	1000 to 100000 nM	1000 to 100000 nM			
